Experimental data as given in patent US11807835B2, “Detergent compositions containing a stabilized enzyme by phosphonates” (ECOLAB USA INC., priority 2016, dated 2023).

Experiments:
protease = assay: Protease activity retention in detergent use solution (4000 ppm, 5 GPG water; peptidyl substrate, glycine buffer pH 9.0); type: biochemical; conditions: base formula, use solution at 120° F.
In short: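 Detergent use solutions at 4000 ppm in 5 GPG water were held at 120° F with stirring and sampled up to 4 h, with aliquots flash-frozen. Activity was read on a peptidyl substrate in glycine buffer pH 9.0 by absorbance against a calibration curve. Retention is % activity relative to the t=0 sample.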

lipase = assay: Lipase activity retention in detergent use solution (4000 ppm, 5 GPG water; p-nitrophenyl valerate, TRIS buffer pH 8.0); type: biochemical; conditions: base formula
In short: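 Lipase stability was measured in a detergent use solution under conditions mimicking presoak or manual warewash, with stirring in a water bath. Aliquots were taken over time and flash-frozen. Thawed samples were diluted in TRIS buffer at pH 8.0 and assayed with p-nitrophenyl valerate as substrate on a plate reader. Activity is reported as % retained relative to the time=0 sample.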

Q: With Monoethanolamine phosphonate [MEAP] as the substance, how does the “Relative Protease Enzyme Activity” value (protease; phosphonate 0.3 wt-%, lower half of Table 4A, time 5) read?
A: 98.29%

Q: And the “Relative Protease Enzyme Activity” value (protease; phosphonate 0.3 wt-%, lower half of Table 4A, time 20)?
A: 90.19%

Q: And the “Relative Protease Enzyme Activity” value (protease; phosphonate 0.3 wt-%, lower half of Table 4A, time 90)?
A: 72.58%

Q: What about the “Relative Protease Enzyme Activity” value (protease; phosphonate 0.3 wt-%, lower half of Table 4A, time 120) of the same substance?
A: 68.59%

Q: And the “Relative Protease Enzyme Activity” value (protease; phosphonate 0.3 wt-%, lower half of Table 4A, time 150, unit not given)?
A: 63.56%

Q: What about the “Relative Protease Enzyme Activity” value (protease; phosphonate 0.3 wt-%, lower half of Table 4A, time 210) of the same substance?
A: 60.60%

Q: What about the “Relative Protease Enzyme Activity” value (protease; phosphonate 0.3 wt-%, lower half of Table 4A, time '0') of the same substance?
A: 103.02%

Q: What about the “Relative Protease Enzyme Activity” value (protease; phosphonate 0.3 wt-%, lower half of Table 4A, time '40') of the same substance?
A: 82.48%

Q: What about the “Relative Protease Enzyme Activity” value (protease; phosphonate 0.3 wt-%, lower half of Table 4A, time 'Blank') of the same substance?
A: 100.00%

Q: What about the “Relative Protease Enzyme Activity” value (protease; phosphonate 0.3 wt-%, lower half of Table 4A, time row printed '10') of the same substance?
A: 96.59%

Q: And the “Relative Protease Enzyme Activity” value (protease; phosphonate 0.3 wt-%, lower half of Table 4A, time row printed '60')?
A: 79.14%

Q: What about the “Relative Protease Enzyme Activity” value (protease; phosphonate 0.3 wt-%, lower half of Table 4A, time row printed '180') of the same substance?
A: 58.70%

Q: And the “Relative Protease Enzyme Activity” value (protease; phosphonate 0.6 wt-%, time 0 min)?
A: 100.00%

Q: And the “Relative Protease Enzyme Activity” value (protease; phosphonate 0.6 wt-%, time 5 min)?
A: 106.85%

Q: What about the “Relative Protease Enzyme Activity” value (protease; phosphonate 0.6 wt-%, time 10 min) of the same substance?
A: 101.06%

Q: What about the “Relative Protease Enzyme Activity” value (protease; phosphonate 0.6 wt-%, time 20 min) of the same substance?
A: 104.08%

Q: And the “Relative Protease Enzyme Activity” value (protease; phosphonate 0.6 wt-%, time 40 min)?
A: 95.75%

Q: What about the “Relative Protease Enzyme Activity” value (protease; phosphonate 0.6 wt-%, time 60 min) of the same substance?
A: 95.13%

Q: And the “Relative Protease Enzyme Activity” value (protease; phosphonate 0.6 wt-%, time 90 min)?
A: 86.12%

Q: And the “Relative Protease Enzyme Activity” value (protease; phosphonate 0.6 wt-%, time 120 min)?
A: 85.48%

Q: What about the “Relative Protease Enzyme Activity” value (protease; phosphonate 0.6 wt-%, time 150 min) of the same substance?
A: 80.22%

Q: And the “Relative Protease Enzyme Activity” value (protease; phosphonate 0.6 wt-%, time 180 min)?
A: 82.71%

Q: And the “Relative Protease Enzyme Activity” value (protease; phosphonate 0.6 wt-%, time 210 min)?
A: 70.64%

Q: And the “Relative Protease Enzyme Activity” value (protease; phosphonate 0.6 wt-%, time 240 min)?
A: 72.77%

Q: What about the “Relative Protease Enzyme Activity” value (protease; phosphonate at 0.1% elemental phosphorus, time 0 min) of the same substance?
A: 100.00%

Q: And the “Relative Protease Enzyme Activity” value (protease; phosphonate at 0.1% elemental phosphorus, time 5 min)?
A: 119.22%

Q: What about the “Relative Protease Enzyme Activity” value (protease; phosphonate at 0.1% elemental phosphorus, time 10 min) of the same substance?
A: 118.42%

Q: And the “Relative Protease Enzyme Activity” value (protease; phosphonate at 0.1% elemental phosphorus, time 20 min)?
A: 113.68%

Q: And the “Relative Protease Enzyme Activity” value (protease; phosphonate at 0.1% elemental phosphorus, time 40 min)?
A: 108.32%

Q: And the “Relative Protease Enzyme Activity” value (protease; phosphonate at 0.1% elemental phosphorus, time 60 min)?
A: 105.97%

Q: And the “Relative Protease Enzyme Activity” value (protease; phosphonate at 0.1% elemental phosphorus, time 90 min)?
A: 95.99%

Q: And the “Relative Protease Enzyme Activity” value (protease; phosphonate at 0.1% elemental phosphorus, time 120 min)?
A: 91.30%

Q: And the “Relative Protease Enzyme Activity” value (protease; phosphonate at 0.1% elemental phosphorus, time 150 min)?
A: 82.74%

Q: And the “Relative Protease Enzyme Activity” value (protease; phosphonate at 0.1% elemental phosphorus, time 180 min)?
A: 81.94%

Q: What about the “Relative Protease Enzyme Activity” value (protease; phosphonate at 0.1% elemental phosphorus, time 210 min) of the same substance?
A: 79.85%

Q: What about the “Relative Protease Enzyme Activity” value (protease; phosphonate at 0.1% elemental phosphorus, time 240 min) of the same substance?
A: 75.73%

Q: And the “Relative Lipase Enzyme Activity” value (lipase; phosphonate 0.3 wt-%, use solution at 120° F., time 0 min)?
A: 100.00%

Q: What about the “Relative Lipase Enzyme Activity” value (lipase; phosphonate 0.3 wt-%, use solution at 120° F., time 5 min) of the same substance?
A: 84.99%

Q: What about the “Relative Lipase Enzyme Activity” value (lipase; phosphonate 0.3 wt-%, use solution at 120° F., time 10 min) of the same substance?
A: 78.55%

Q: What about the “Relative Lipase Enzyme Activity” value (lipase; phosphonate 0.3 wt-%, use solution at 120° F., time 20 min) of the same substance?
A: 58.36%

Q: And the “Relative Lipase Enzyme Activity” value (lipase; phosphonate 0.3 wt-%, use solution at 120° F., time 40 min)?
A: 39.07%

Q: And the “Relative Lipase Enzyme Activity” value (lipase; phosphonate 0.3 wt-%, use solution at 120° F., time 60 min)?
A: 31.84%

Q: What about the “Relative Lipase Enzyme Activity” value (lipase; phosphonate 0.3 wt-%, use solution at 120° F., time 90 min) of the same substance?
A: 26.97%

Q: And the “Relative Lipase Enzyme Activity” value (lipase; phosphonate 0.3 wt-%, use solution at 120° F., time 120 min)?
A: 22.23%

Q: What about the “Relative Lipase Enzyme Activity” value (lipase; phosphonate 0.3 wt-%, use solution at 120° F., time 150 min) of the same substance?
A: 20.19%

Q: And the “Relative Lipase Enzyme Activity” value (lipase; phosphonate 0.3 wt-%, use solution at 120° F., time 180 min)?
A: 19.50%

Q: And the “Relative Lipase Enzyme Activity” value (lipase; phosphonate 0.3 wt-%, use solution at 120° F., time 210 min)?
A: 16.46%

Q: What about the “Relative Lipase Enzyme Activity” value (lipase; phosphonate 0.3 wt-%, use solution at 120° F., time 240 min) of the same substance?
A: 15.76%

Q: What about the “Relative Lipase Enzyme Activity” value (lipase; phosphonate 0.6 wt-%, use solution at 120º F., time 0 min) of the same substance?
A: 100.00%

Q: And the “Relative Lipase Enzyme Activity” value (lipase; phosphonate 0.6 wt-%, use solution at 120º F., time 5 min)?
A: 95.37%

Q: What about the “Relative Lipase Enzyme Activity” value (lipase; phosphonate 0.6 wt-%, use solution at 120º F., time 10 min) of the same substance?
A: 90.69%

Q: And the “Relative Lipase Enzyme Activity” value (lipase; phosphonate 0.6 wt-%, use solution at 120º F., time 20 min)?
A: 83.63%

Q: What about the “Relative Lipase Enzyme Activity” value (lipase; phosphonate 0.6 wt-%, use solution at 120º F., time 40 min) of the same substance?
A: 72.89%

Q: And the “Relative Lipase Enzyme Activity” value (lipase; phosphonate 0.6 wt-%, use solution at 120º F., time 60 min)?
A: 69.90%

Q: And the “Relative Lipase Enzyme Activity” value (lipase; phosphonate 0.6 wt-%, use solution at 120º F., time 90 min)?
A: 65.92%

Q: What about the “Relative Lipase Enzyme Activity” value (lipase; phosphonate 0.6 wt-%, use solution at 120º F., time 120 min) of the same substance?
A: 59.18%

Q: What about the “Relative Lipase Enzyme Activity” value (lipase; phosphonate 0.6 wt-%, use solution at 120º F., time 150 min) of the same substance?
A: 53.85%

Q: And the “Relative Lipase Enzyme Activity” value (lipase; phosphonate 0.6 wt-%, use solution at 120º F., time 180 min)?
A: 51.72%

Q: And the “Relative Lipase Enzyme Activity” value (lipase; phosphonate 0.6 wt-%, use solution at 120º F., time 210 min)?
A: 47.03%

Q: And the “Relative Lipase Enzyme Activity” value (lipase; phosphonate 0.6 wt-%, use solution at 120º F., time 240 min)?
A: 42.96%

Q: What about the “Relative Lipase Enzyme Activity” value (lipase; phosphonate at 0.1% elemental phosphorus, at 120º F. or at room temperature (as titled), time 0 min) of the same substance?
A: 100.00%

Q: What about the “Relative Lipase Enzyme Activity” value (lipase; phosphonate at 0.1% elemental phosphorus, at 120º F. or at room temperature (as titled), time 5 min) of the same substance?
A: 81.36%

Q: What about the “Relative Lipase Enzyme Activity” value (lipase; phosphonate at 0.1% elemental phosphorus, at 120º F. or at room temperature (as titled), time 10 min) of the same substance?
A: 84.98%

Q: What about the “Relative Lipase Enzyme Activity” value (lipase; phosphonate at 0.1% elemental phosphorus, at 120º F. or at room temperature (as titled), time 20 min) of the same substance?
A: 71.62%

Q: What about the “Relative Lipase Enzyme Activity” value (lipase; phosphonate at 0.1% elemental phosphorus, at 120º F. or at room temperature (as titled), time 40 min) of the same substance?
A: 57.03%

Q: And the “Relative Lipase Enzyme Activity” value (lipase; phosphonate at 0.1% elemental phosphorus, at 120º F. or at room temperature (as titled), time 60 min)?
A: 47.80%

Q: What about the “Relative Lipase Enzyme Activity” value (lipase; phosphonate at 0.1% elemental phosphorus, at 120º F. or at room temperature (as titled), time 90 min) of the same substance?
A: 41.02%

Q: And the “Relative Lipase Enzyme Activity” value (lipase; phosphonate at 0.1% elemental phosphorus, at 120º F. or at room temperature (as titled), time 120 min)?
A: 31.46%

Q: And the “Relative Lipase Enzyme Activity” value (lipase; phosphonate at 0.1% elemental phosphorus, at 120º F. or at room temperature (as titled), time 150 min)?
A: 28.32%

Q: What about the “Relative Lipase Enzyme Activity” value (lipase; phosphonate at 0.1% elemental phosphorus, at 120º F. or at room temperature (as titled), time 180 min) of the same substance?
A: 20.93%

Q: And the “Relative Lipase Enzyme Activity” value (lipase; phosphonate at 0.1% elemental phosphorus, at 120º F. or at room temperature (as titled), time 210 min)?
A: 23.04%

Q: What about the “Relative Lipase Enzyme Activity” value (lipase; phosphonate at 0.1% elemental phosphorus, at 120º F. or at room temperature (as titled), time 240 min) of the same substance?
A: 20.87%
